# Measurements taken from the supplement of paper PMC13380429.
# Experiments:
# Details in all cases: 72 h
# Calu-3 [1] = test: drug sensitivity score (DSS) for viability; higher = more toxic; extreme values may be limits of the assay
# HepG2 [2] = test: as above
# Vero E6 [3] = test: as above
# Caco-2 [4] = test: as above
# Calu-3 [5] = test: cell viability relative to DMSO; higher = less toxic
# HepG2 [6] = test: as above
# Vero E6 [7] = test: as above
# Caco-2 [8] = test: as above
# Calu-3 [9] = test: relative viability EC50 (midpoint between 100% and the lowest measured viability); higher = less toxic
# HepG2 [10] = test: as above
# Vero E6 [11] = test: as above
# Caco-2 [12] = test: as above
# U2OS [13] = test: drug sensitivity score (DSS) for viability; higher = more toxic; extreme values may be limits of the assay
# U2OS [14] = test: cell viability relative to DMSO; higher = less toxic
# U2OS [15] = test: relative viability EC50 (midpoint between 100% and the lowest measured viability); higher = less toxic
Structure (SMILES),drug sensitivity score (Calu-3 [1]),drug sensitivity score (HepG2 [2]),drug sensitivity score (Vero E6 [3]),drug sensitivity score (Caco-2 [4]),cell viability (Calu-3 [5]; 1 nM),cell viability (Calu-3 [5]; 10 nM),cell viability (Calu-3 [5]; 100 nM),cell viability (Calu-3 [5]; 1000 nM),cell viability (Calu-3 [5]; 10000 nM),cell viability (HepG2 [6]; 1 nM),cell viability (HepG2 [6]; 10 nM),cell viability (HepG2 [6]; 100 nM),cell viability (HepG2 [6]; 1000 nM),cell viability (HepG2 [6]; 10000 nM),cell viability (Vero E6 [7]; 1 nM),cell viability (Vero E6 [7]; 10 nM),cell viability (Vero E6 [7]; 100 nM),cell viability (Vero E6 [7]; 1000 nM),cell viability (Vero E6 [7]; 10000 nM),cell viability (Caco-2 [8]; 1 nM),cell viability (Caco-2 [8]; 10 nM),cell viability (Caco-2 [8]; 100 nM),cell viability (Caco-2 [8]; 1000 nM),cell viability (Caco-2 [8]; 10000 nM),relative viability EC50 (Calu-3 [9]),relative viability EC50 (HepG2 [10]),relative viability EC50 (Vero E6 [11]),relative viability EC50 (Caco-2 [12]),drug sensitivity score (U2OS [13]),cell viability (U2OS [14]; 1 nM),cell viability (U2OS [14]; 10 nM),cell viability (U2OS [14]; 100 nM),cell viability (U2OS [14]; 1000 nM),cell viability (U2OS [14]; 10000 nM),relative viability EC50 (U2OS [15])
Cc1cnc(-c2cnc(NCCNc3ccc(C#N)cn3)nc2-c2ccc(Cl)cc2Cl)[nH]1,0,0,1.2,0,87.6%,107%,99.1%,110%,89.7%,104%,99.3%,107%,113%,98.4%,101%,100%,94.9%,97.6%,76.8%,99.5%,105%,95.7%,110%,99.6%,> 10 µM,> 10 µM,> 10 µM,> 10 µM,,,,,,,
NNC(=O)CSc1nc2scc(-c3ccccc3)c2c(=O)n1-c1ccccc1,0,,0,0,91.9%,93.2%,95.3%,103%,101%,,,,,,94.1%,97.1%,94.8%,90.5%,109%,100%,97.7%,93.1%,93.6%,108%,> 10 µM,,> 10 µM,> 10 µM,0,97.7%,95.8%,98.3%,103%,102%,> 10 µM
CN1CCN(C2=Cc3ccccc3Oc3ccc(Cl)cc32)CC1 [2-CMDO],0,,0,0,103%,102%,98.2%,112%,95.6%,,,,,,102%,99.5%,103%,103%,93.3%,107%,90.6%,99.7%,103%,92.3%,> 10 µM,,> 10 µM,> 10 µM,0,101%,98.6%,96.7%,100%,90.1%,> 10 µM
Nc1ccc(C(=O)NCC(=O)O)cc1 [4-aminohippuric-acid],0,0,0,0.1,106%,91.1%,109%,106%,101%,100%,107%,99%,104%,89.8%,97.5%,99.1%,101%,100%,96.2%,97.1%,99.7%,100%,89.5%,93%,> 10 µM,> 10 µM,> 10 µM,> 10 µM,,,,,,,
